From US20250243171A1, “QUINAZOLINE COMPOUNDS FOR TREATMENT OF DISEASE” (Arthrosi Therapeutics, Inc., priority 2021, published 2025)
pEC50: −log10 of the molar value.

Experiments:
Experiment in all cases: EC50 assay: Ba/F3 stable cell proliferation (CCK-8, 72 h)
Assay type in all cases: cell-based
Ba/F3 stable cells [1] = biological target: T1, Ba/F3 stable cells (Homo sapiens, UniProt P00533, T790M/L858R, cells depend on it); conditions: Ba/F3-EGFR L858R-T790M cells
T1 construct: EC50 Ba/F3-EGFR L858R-T790M; other: Ba/F3-EGFR L858R-T790M cells, 72 h, CCK-8
How it was run: (§1)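 Ba/F3 stable cells were seeded at 4,000 cells/90 μL/well in 96-well plates and held 2 h at 37° C. in 5% CO2, then given 10 μL of serially titrated compound (0.1% DMSO final). After 72 h at 37° C., CCK-8 reagent was added for 4 hours and absorbance read at 450 nm to derive EC50.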

Ba/F3 stable cells [2] = biological target: T2, Ba/F3 stable cells (Homo sapiens, UniProt P04626, DUP772-775, cells depend on it); conditions: Ba/F3-HER2 A775-G776insYVMA cells
T2 construct: EC50 Ba/F3-HER2 A775-G776insYVMA; other: Ba/F3-HER2 A775-G776insYVMA cells, 72 h, CCK-8
How it was run: as §1

Ba/F3 stable cells [3] = biological target: T3, Ba/F3 stable cells (Homo sapiens, UniProt P00533, DUP767-769, cells depend on it); conditions: Ba/F3-EGFR V769-D770insASV cells
T3 construct: EC50 Ba/F3-EGFR V769-D770insASV; other: Ba/F3-EGFR V769-D770insASV cells, 72 h, CCK-8
How it was run: as §1

Ba/F3 stable cells [4] = biological target: T4, Ba/F3 stable cells (Homo sapiens, UniProt P00533, DUP771-773, cells depend on it); conditions: Ba/F3-EGFR H773-V774insNPH cells
T4 construct: EC50 Ba/F3-EGFR H773-V774insNPH; other: Ba/F3-EGFR H773-V774insNPH cells, 72 h, CCK-8
How it was run: as §1

Ba/F3 stable cells [5] = biological target: T5, Ba/F3 stable cells (Homo sapiens, UniProt P00533, DUP768-770, cells depend on it); conditions: Ba/F3-EGFR D770-N771insSVD cells
T5 construct: EC50 Ba/F3-EGFR D770-N771insSVD; other: Ba/F3-EGFR D770-N771insSVD cells, 72 h, CCK-8
How it was run: as §1

Ba/F3 stable cells [6] = biological target: T6, Ba/F3 stable cells (Homo sapiens, UniProt P00533, INS763FQEA, cells depend on it); conditions: Ba/F3-EGFR A763-Y764insFQEA cells
T6 construct: EC50 Ba/F3-EGFR A763-Y764insFQEA; other: Ba/F3-EGFR A763-Y764insFQEA cells, 72 h, CCK-8
How it was run: as §1

T4 sequence (P00533 with tags, fused parts or gaps DUP771-773): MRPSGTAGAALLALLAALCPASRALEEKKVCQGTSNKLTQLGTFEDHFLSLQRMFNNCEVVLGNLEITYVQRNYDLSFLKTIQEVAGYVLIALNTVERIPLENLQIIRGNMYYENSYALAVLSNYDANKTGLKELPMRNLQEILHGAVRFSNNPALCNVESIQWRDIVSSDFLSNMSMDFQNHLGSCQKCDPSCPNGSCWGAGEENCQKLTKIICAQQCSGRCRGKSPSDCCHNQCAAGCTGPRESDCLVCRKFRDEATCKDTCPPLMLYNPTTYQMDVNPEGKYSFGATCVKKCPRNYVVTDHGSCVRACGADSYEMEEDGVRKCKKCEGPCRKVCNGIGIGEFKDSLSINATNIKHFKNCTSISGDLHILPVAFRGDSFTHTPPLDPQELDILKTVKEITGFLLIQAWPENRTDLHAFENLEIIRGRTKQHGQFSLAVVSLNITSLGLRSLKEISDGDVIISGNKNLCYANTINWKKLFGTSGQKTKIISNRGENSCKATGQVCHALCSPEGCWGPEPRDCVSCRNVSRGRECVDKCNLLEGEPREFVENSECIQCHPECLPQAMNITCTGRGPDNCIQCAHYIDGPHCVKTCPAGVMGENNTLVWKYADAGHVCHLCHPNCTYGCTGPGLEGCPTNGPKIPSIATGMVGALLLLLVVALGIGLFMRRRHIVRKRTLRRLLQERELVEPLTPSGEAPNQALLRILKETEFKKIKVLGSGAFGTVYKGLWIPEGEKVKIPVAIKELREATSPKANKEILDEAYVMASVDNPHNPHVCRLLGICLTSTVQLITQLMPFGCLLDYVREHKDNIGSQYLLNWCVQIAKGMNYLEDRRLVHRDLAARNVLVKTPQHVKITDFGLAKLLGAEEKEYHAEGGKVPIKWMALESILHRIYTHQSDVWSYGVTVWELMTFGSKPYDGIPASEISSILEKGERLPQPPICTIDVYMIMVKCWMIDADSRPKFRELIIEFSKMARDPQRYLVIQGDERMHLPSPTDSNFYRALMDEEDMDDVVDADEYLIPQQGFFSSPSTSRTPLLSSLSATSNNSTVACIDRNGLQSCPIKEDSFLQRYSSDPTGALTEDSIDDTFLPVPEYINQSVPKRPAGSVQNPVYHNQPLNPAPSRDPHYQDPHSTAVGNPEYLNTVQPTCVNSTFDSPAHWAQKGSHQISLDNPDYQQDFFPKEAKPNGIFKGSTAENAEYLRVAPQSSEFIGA
T5 sequence (P00533 with tags, fused parts or gaps DUP768-770): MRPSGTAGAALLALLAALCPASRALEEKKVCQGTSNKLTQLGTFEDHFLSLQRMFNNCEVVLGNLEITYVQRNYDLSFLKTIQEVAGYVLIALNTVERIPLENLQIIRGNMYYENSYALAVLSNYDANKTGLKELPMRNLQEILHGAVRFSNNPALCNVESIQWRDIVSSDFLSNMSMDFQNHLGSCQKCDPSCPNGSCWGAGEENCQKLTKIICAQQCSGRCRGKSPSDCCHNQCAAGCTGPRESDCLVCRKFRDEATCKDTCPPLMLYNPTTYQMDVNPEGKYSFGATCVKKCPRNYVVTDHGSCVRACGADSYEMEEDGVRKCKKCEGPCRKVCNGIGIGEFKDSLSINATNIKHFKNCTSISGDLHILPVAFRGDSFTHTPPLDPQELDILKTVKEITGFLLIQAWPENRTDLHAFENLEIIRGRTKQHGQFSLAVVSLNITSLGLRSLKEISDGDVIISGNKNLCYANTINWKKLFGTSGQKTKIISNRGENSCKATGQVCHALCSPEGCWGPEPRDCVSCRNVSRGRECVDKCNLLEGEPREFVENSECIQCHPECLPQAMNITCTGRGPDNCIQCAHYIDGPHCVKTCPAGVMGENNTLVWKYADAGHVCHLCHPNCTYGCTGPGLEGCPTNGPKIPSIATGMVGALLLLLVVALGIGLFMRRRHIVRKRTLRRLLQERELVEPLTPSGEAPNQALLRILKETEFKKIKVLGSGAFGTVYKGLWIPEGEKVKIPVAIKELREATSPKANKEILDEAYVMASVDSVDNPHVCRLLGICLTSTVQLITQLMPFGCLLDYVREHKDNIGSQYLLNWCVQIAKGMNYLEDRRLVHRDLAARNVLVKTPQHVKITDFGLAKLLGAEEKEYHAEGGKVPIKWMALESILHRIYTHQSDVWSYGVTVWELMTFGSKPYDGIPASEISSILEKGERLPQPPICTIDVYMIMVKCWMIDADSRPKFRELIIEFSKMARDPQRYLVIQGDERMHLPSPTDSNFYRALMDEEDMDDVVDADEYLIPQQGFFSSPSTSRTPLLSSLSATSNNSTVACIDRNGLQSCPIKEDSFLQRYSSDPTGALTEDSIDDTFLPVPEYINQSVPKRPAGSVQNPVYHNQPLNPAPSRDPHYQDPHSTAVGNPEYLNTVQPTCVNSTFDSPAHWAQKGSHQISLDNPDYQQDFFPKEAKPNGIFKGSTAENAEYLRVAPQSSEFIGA
T1 sequence (P00533 whole entry T790M/L858R): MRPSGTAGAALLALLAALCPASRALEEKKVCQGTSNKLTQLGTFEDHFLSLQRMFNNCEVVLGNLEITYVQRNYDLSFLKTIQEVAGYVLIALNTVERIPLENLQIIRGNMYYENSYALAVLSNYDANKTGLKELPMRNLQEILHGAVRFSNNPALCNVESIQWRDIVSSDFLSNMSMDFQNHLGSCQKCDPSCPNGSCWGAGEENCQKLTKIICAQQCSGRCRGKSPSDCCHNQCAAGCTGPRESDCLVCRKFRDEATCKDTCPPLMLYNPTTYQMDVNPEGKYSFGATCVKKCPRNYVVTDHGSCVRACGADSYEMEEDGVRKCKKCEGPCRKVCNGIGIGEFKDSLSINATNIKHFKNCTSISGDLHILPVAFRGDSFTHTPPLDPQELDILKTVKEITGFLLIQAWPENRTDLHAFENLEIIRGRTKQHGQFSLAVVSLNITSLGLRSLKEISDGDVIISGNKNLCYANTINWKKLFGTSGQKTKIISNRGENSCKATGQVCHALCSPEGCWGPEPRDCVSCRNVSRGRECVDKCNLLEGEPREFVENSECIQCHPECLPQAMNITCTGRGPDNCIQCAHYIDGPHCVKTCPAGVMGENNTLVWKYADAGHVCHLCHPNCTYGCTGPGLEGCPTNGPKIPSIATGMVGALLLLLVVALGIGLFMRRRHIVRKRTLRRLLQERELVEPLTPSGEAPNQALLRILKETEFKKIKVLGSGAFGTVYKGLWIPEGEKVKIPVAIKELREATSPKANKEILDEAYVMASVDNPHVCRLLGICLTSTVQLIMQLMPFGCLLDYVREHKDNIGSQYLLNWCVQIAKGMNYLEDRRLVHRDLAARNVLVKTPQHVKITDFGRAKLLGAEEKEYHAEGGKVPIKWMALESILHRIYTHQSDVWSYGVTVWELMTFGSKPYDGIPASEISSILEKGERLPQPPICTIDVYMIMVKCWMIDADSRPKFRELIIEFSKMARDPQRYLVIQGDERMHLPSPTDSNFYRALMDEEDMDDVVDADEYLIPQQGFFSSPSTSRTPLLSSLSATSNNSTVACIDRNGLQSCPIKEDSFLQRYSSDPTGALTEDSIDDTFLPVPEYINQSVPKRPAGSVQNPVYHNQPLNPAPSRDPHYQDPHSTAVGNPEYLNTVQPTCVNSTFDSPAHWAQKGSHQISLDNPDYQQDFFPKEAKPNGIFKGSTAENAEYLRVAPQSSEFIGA
T3 sequence (P00533 with tags, fused parts or gaps DUP767-769): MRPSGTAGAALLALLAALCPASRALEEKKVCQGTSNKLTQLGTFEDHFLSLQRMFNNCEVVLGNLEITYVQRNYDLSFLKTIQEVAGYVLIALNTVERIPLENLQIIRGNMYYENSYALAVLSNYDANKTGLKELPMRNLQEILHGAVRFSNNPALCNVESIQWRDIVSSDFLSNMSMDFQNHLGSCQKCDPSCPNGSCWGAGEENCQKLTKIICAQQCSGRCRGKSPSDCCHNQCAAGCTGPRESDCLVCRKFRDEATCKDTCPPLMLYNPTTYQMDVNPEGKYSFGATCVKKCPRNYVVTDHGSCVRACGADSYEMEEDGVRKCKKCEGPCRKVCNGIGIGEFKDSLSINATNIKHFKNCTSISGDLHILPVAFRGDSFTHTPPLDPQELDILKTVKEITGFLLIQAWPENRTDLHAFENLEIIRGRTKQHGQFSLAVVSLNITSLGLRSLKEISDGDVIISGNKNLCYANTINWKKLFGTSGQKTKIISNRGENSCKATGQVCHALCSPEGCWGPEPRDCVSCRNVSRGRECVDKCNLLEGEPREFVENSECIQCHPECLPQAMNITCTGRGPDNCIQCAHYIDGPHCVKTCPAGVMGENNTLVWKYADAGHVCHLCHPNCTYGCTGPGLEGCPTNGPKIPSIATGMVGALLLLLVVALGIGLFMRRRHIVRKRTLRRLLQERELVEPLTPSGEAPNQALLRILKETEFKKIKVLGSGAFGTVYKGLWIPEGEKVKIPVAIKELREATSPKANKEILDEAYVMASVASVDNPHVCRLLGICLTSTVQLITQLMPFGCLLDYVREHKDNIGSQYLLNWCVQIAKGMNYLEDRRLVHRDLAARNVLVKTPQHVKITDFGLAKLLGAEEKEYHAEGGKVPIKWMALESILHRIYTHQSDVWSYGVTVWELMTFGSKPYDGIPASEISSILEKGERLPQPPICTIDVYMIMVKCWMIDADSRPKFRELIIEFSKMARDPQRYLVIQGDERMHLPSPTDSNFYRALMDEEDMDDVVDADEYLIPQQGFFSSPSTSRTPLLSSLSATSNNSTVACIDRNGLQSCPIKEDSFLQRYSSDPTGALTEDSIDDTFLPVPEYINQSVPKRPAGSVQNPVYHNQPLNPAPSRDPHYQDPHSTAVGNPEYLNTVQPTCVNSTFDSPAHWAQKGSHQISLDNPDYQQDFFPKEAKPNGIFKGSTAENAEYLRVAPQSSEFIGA

Row | SMILES | pEC50 (Ba/F3 stable cells [1]) | pEC50 (Ba/F3 stable cells [2]) | pEC50 (Ba/F3 stable cells [3]) | pEC50 (Ba/F3 stable cells [4]) | pEC50 (Ba/F3 stable cells [5]) | pEC50 (Ba/F3 stable cells [6])
1 | C=CC(=O)N1CCC(Oc2cc3c(Nc4ccc5cnccc5c4)ncnc3cc2OC)CC1 [Compound 140, 1-(4-((4-(isoquinolin-6-ylamino)-7-methoxyquinazolin-6-yl)oxy)piperidin-1-yl)prop-2-en-1-one] | < 6.00 | < 6.00 | < 6.00 | < 6.00 | < 6.00 | < 6.00
2 | C=CC(=O)NC1CC(Oc2cc3c(Nc4ccc5c(c4)CCCC5=O)ncnc3cc2OC)C1 (stereo not drawn) [Compound 70, N-(3-((7-methoxy-4-((5-oxo-5,6,7,8-tetrahydronaphthalen-2-yl)amino)quinazolin-6-yl)oxy)cyclobutyl)acrylamide] | < 6.00 | < 6.00 | < 6.00 | < 6.00 | < 6.00 | < 6.00
3 | C=C(F)C(=O)N1CC(c2cc3c(Nc4ccc(Cl)c(Cl)c4F)ncnc3cc2O[C@H]2CCOC2)C1 [Compound 37, (S)-1-(3-(4-((3,4-dichloro-2-fluorophenyl)amino)-7-((tetrahydrofuran-3-yl)oxy)quinazolin-6-yl)azetidin-1-yl)-2-fluoroprop-2-en-1-one] | 6.00 to 6.70 | 6.00 to 6.70 | ≥ 6.70 | 6.00 to 6.70 | 6.00 to 6.70 | ≥ 6.70
4 | [2H]C([2H])([2H])n1cn/c(=N\c2ccc(Cl)c(Cl)c2F)c2cc3c(cc21)OCC3CNC(=O)C=C (stereo not drawn) [Compound 35, (Z)—N-((4-((3,4-dichloro-2-fluorophenyl)imino)-1-trideuteriomethyl-1,4,6,7-tetrahydrofuro[3,2-g]quinazolin-6-yl)methyl)acrylamide] | < 6.00 | < 6.00 | < 6.00 | < 6.00 | < 6.00 | < 6.00
5 | C=CC(=O)N[C@H]1C[C@@H](Oc2cc3c(Nc4ccc(Cl)c(Cl)c4F)ncnc3cc2OC)C1 [Compound 66, N-((1s,3s)-3-((4-((3,4-dichloro-2-fluorophenyl)amino)-7-methoxyquinazolin-6-yl)oxy)cyclobutyl)acrylamide] | ≥ 6.70 | ≥ 6.70 | ≥ 6.70 | ≥ 6.70 | 6.00 to 6.70 | ≥ 6.70
6 | C=CC(=O)N1C2CCC1CC(Oc1cc3c(Nc4cccc5c4CCC5)ncnc3cc1OC)C2 (stereo not drawn) [Compound 183, 1-(3-((4-((2,3-dihydro-1H-inden-4-yl)amino)-7-methoxyquinazolin-6-yl)oxy)-8-azabicyclo[3.2.1]octan-8-yl)prop-2-en-1-one] | ≥ 6.70 | 6.00 to 6.70 | ≥ 6.70 | ≥ 6.70 | 6.00 to 6.70 | ≥ 6.70
